What was measured:
[1] = tested on: rice; assay: Synthetic triacontanol on rice in nutrient cultures (Example III); assay type: in vivo; settings: for Dry wt / Water Uptake: seven days
Description: (§1) Synthetic triacontanol in aqueous solution was applied to rice (4 replicates) in nutrient cultures and to "Chico III" tomatoes (6 replicates) grown in soil as previously described. The response of both rice and tomatoes to synthetic triacontanol after seven and six days respectively was similar to that of the natural triacontanol with the optimum rate at between 0.01 and 0.1 mg per liter, as summarized in the following table III:
^1 Treatments applied on filter paper, including control and placed i
nutrient solution. The solution was changed after 4 days. Seedlings
weighed 57 mg at initiation of test.

[2] = tested on: Chico III tomatoes; assay: Synthetic triacontanol on tomatoes grown in soil, foliage sprayed (Example III); assay type: in vivo, tomato; settings: six days
Description: as §1
^2 Tomatoes grown in greenhouse soil and foliage sprayed, including

[3] = tested on: IR-8 rice seedlings; assay: Growth analysis (NAR, RGR, LAR) of IR-8 rice seedlings (Example V); assay type: in vivo
Description: Rice seed cv. IR-8, or Starbonnet was surface treated with 0.1 percent mercuric chloride and planted in 77 cc plastic cups containing vermiculite and watered with one-fourth Hoagland's nutrient solution containing 3 mM of nitrogen at pH 5.0. After 10 days, seedlings were transplanted to 220 cc specimen cups wrapped in aluminum foil and containing 180 cc of the same Hoagland's nutrient solution. Four seedlings were suspended in the solution with a sponge rubber disc. The plants were grown under a 8 h night at 25° C. and a 16 h day at 30° C. with 21 and 8 μwatts per cm^2 in the blue and red spectra respectively. In the test with varying light intensity the high light intensity was 30 13 and the low intensity was 15 and 8 μwatts per cm^2 for the blue and red spectra respectively. The nutrient solution was renewed every 2 or 3 days. After one week the plants were sorted for size and similar sized plants assigned to the same block for the experiment. Prior to the initiation of a test the plants in each cup were assigned treatment numbers by use of a random number table. […] Sixteen hours prior to a test the foil wrapped cups were tared, and filled with one-half Hoaglands solution containing 6 mM nitrogen. Eighteen μl of chloroform or chloroform containing 1.8 μg triacontanol were placed on 2 cm^2 of Whatman No. 1 filter papers, air dried and placed in the specimen cups. This concentration of 10 μg triacontanol/liter was used for all tests described in the following Examples except where specifically indicated to the contrary. Immediately prior to the test the cups were all brought up to 180 ml. including a set of cups without plants to measure evaporation.
The plants were disected at harvest into shoots and roots. The expanded leaves were cut at the ligule and the newest leaf at the point it entered the sheath. The surface area of expanded leaves were measured using a Lambda Model LI-3000 planimeter. The plants were dried to constant weight in an oven at 100° C. and the roots, expanded leaves, and sheaths were weighed separately.
Growth analysis was conducted according to Evans (1972). The Net Assimulation Rate (NAR) is the increase in plant weight per unit of leaf area over time interval where: W=total weight per plant in mg, T=time in days, and L=leaf area in cm^2. [formula]
The relative growth rate (RGR) is the increase in plant weight per unit of original weight over a time interval and is obtained by: [formula]
The leaf area ratio is the ratio of leaf area to […] over a time interval. [formula]
IR-8 rice seedlings were grown as above explained and were tested at 8 hour, 24 hour, 72 hour, and 216 hour intervals. Control (no treatment) plants are indicated by "0" and triacontanol treated plants are indicated by "+" in Table V. The Net Assimulation Rate (NAR), the Relative Growth Rate (RGR) and the Lead Area Ratio (LAR) was determined for each plant at each interval.

[4] = tested on: field corn; assay: Foliar spray and soil drench on field corn (Example IX); assay type: in vivo; settings: for % increase: dry weight
Description: To determine the effect of triacontanol methods of treatment, differing amounts of triacontanol were applied to field corn by foliar spray and by drenching the soil. The plants were twelve days old at the time of treatment, and the plants were harvested when forty-two days old.
0.01 mg/l triacontanol applied by soil drench corresponds to 0.4 grams pe
acre. 0.10 mg/l corresponds to 4 grams per acre.

[5] = tested on: Michigan 396 field corn; assay: Single and multiple foliar applications on field corn (Example XII); assay type: in vivo
Description: Tests were run, under the conditions above described, to determine the response of "Michigan 396" field corn and "Larker" barley to single and multiple foliar applications of triacontanol at […]. Plants were one week old at time of first treatment and 25 days old at time or harvest. Table XII states the test results.

[6] = tested on: Bean callus cell culture; assay: Growth of bean callus cell culture (Example XIX); assay type: cell-based, Phaseolus vulgaris, var. seafarer
Description: Cell cultures were separately grown in disposable petri dishes.
4. Bean (Phaseolus vulgaris, var. seafarer)
The cultures were grown on the basic medium of mineral salts described by Linsmaier and Skoog (Physiol. Plant, […] (1965)). Vitamins and hormones varied for each tissue (Table X-1) to maintain the tissues in an undifferentiated state. For all of the tissues inositol was 100 mg/liter and agar 1%. Sucrose was 3% for all but the bean which was 2%.
Callus was produced from pith for tobacco, potato and tomato. Bean callus was produced from hypocotyl sections and barley callus from immature ovarian tissue. Subcultures were maintained on the appropriate media.
Stock solutions of triacontanol were prepared at a concentration of 100 μg/ml. The solvent used was glass distilled benzene. The lower concentrations were obtained by serial dilutions. Treatments were applied to 4.5 cm Whatman #1 filter paper disks in 100 μl aliquots. Controls received 100 μl of glass distilled benzene. The solvent was evaporated for approximately 15 minutes and the filter papers were then placed on the agar medium.
Callus tissue was then broken into pieces of approximately the same size (10 mg) and placed in the petri dishes on the treated filter paper (one piece per dish). For experiments conducted in the light the intensity was approximately 2.0 microwatts/cm^2 -namometer. Fresh weight measurements were made after 12 days of growth.

[7] = foliar spray, 0.01 mg/l (first line)
[8] = foliar spray, printed 0.01 mg/l (second line)
[9] = printed 10.0 g triacontanol, 12 days

CCCCCCCCCCCCCCCCCCCCCCCCCCCCCCO [Triacontanol, 1-triacontanol]
Dry wt ([1]; 0.001 mg/liter): 103 mg/plant
Water Uptake ([1]; 0.001 mg/liter): 37.0 g/plant
Dry wt ([1]; 0.010 mg/liter): 107 mg/plant
Water Uptake ([1]; 0.010 mg/liter): 38.8 g/plant
Dry wt ([1]; 0.100 mg/liter): 106 mg/plant
Water Uptake ([1]; 0.100 mg/liter): 39.0 g/plant
Dry wt ([1]; 1.000 mg/liter): 91 mg/plant
Water Uptake ([1]; 1.000 mg/liter): 33.4 g/plant
minimal effective concentration ([1]; Oryza sativa, soil, rice seedlings, nutrient cultures): ≥ 0.001 µg/mL
Dry wt ([2]; 0.001 mg/liter): 227 mg/shoot
Dry wt ([2]; 0.010 mg/liter): 251 mg/shoot
Dry wt ([2]; 0.100 mg/liter): 245 mg/shoot
Dry wt ([2]; 1.000 mg/liter): 234 mg/shoot
LAR (Leaf Area Ratio) ([3]; 0-8 hours): 0.16
NAR (Net Assimulation Rate) ([3]; 0-8 hours): 3.39 mg plant wt per cm^2 per day
RGR (Relative Growth Rate) ([3]; 0-8 hours): 0.52 mg dry weight per mg original
LAR (Leaf Area Ratio) ([3]; 9-24 hours): 0.15
NAR (Net Assimulation Rate) ([3]; 9-24 hours): 0.90 mg plant wt per cm^2 per day
RGR (Relative Growth Rate) ([3]; 9-24 hours): 0.14 mg dry weight per mg original
LAR (Leaf Area Ratio) ([3]; 25-72 hours): 0.16
NAR (Net Assimulation Rate) ([3]; 25-72 hours): 1.03 mg plant wt per cm^2 per day
RGR (Relative Growth Rate) ([3]; 25-72 hours): 0.17 mg dry weight per mg original
LAR (Leaf Area Ratio) ([3]; 73-216 hours): 0.13
NAR (Net Assimulation Rate) ([3]; 73-216 hours): 1.15 mg plant wt per cm^2 per day
RGR (Relative Growth Rate) ([3]; 73-216 hours): 0.15 mg dry weight per mg original
net assimilation (NAR) greater than control plants ([3]; first 8 hour and subsequent 16 hour period): 37%
application rate for maximum effectiveness ([4]; corn seedlings): about 4 grams per acre
effective application rate ([4]; corn seedlings): about 0.4 grams per acre
Dry Weight [4, 7]: 408 mg/shoot
% increase [4, 7]: 22%
Dry Weight [4, 8]: 463 mg/shoot
% increase [4, 8]: 39%
Dry Weight ([4]; soil drench, 0.01 mg/l): 426 mg/shoot
% increase ([4]; soil drench, 0.01 mg/l): 22%
Dry Weight ([4]; soil drench, 0.10 mg/l): 519 mg/shoot
% increase ([4]; soil drench, 0.10 mg/l): 48%
Dry wt, Corn ([5]; treated at 7, 12 and 18 days): 562 mg/shoot
Dry wt, Corn ([5]; treated at 7 and 12 days): 542 mg/shoot
Dry wt, Corn ([5]; treated at 12 and 18 days): 614 mg/shoot
Dry wt, Corn ([5]; treated at 7 days): 548 mg/shoot
Dry wt, Corn ([5]; treated at 12 days): 522 mg/shoot
Dry wt, Corn ([5]; treated at 18 days): 486 mg/shoot
growth of in vitro cell cultures ([6]; bean): significant increases in growth
% of control [6, 9]: 149 % of control
Fresh weight [6, 9]: 19.8

— patent US4150970A, “Growth regulator for plants” (Board of Trustees of Michigan State University, priority 1977, dated 1979)
